Results published in patent publication US20250163484A1, “Methods for Incorporating Azido Groups in Bacterial Capsular Polysaccharides” (PFIZER INC., priority 2022, published 2025).

Columns and labels:
[1] = system: S. pneumoniae T14; format: cell-based, Streptococcus pneumoniae serotype 14; conditions: production medium + Galactose (30 g/L)
Protocol: (§1) FIGS. 1A-1D. Screen for azido sugar incorporation into S. pneumoniae T14 capsule polysaccharide. […] Bacteria were grown until the ΔOD600≥0 for >30 minutes, then lysed with 0.1% NLS for 30 minutes. Growth was measured offline using a spectrophotometer blanked with PBS at 600 nm. (FIG. 1A) azido incorporation into polysaccharide was then quantified via fluorescent labeling (FL) with normalization to refractive index (RI). MaxOD and End Of Fermentation time (EOF) are provided in (FIG. 1B) and (FIG. 1C), respectively. Polysaccharide was extracted using EtOH and CaCl2 and analyzed via SEC-RI for (FIG. 1D) polysaccharide titer. n=1-4, error bars=+/−StDev.
FIGS. 2A-2D Impact of 2AzGlcAc4 concentration on S. pneumoniae T14 growth and poly production in production medium supplemented with Galactose (30 g/L). […] (FIG. 2A) Growth was measured offline using a spectrophotometer blanked with PBS at 600 nm. At the end of fermentation, cultures were lysed with 0.1% NLS for 30 min. and polysaccharide was extracted via EtOH/CaCl2) precipitation. Polysaccharide titer (FIG. 2B) and size (FIG. 2C) were measured via SEC-RI and SEC-MALS, respectively. (FIG. 2D) azido incorporation was then quantified via fluorescent labeling (FL) and normalized to the refractive index (RI). n=3, error bars=+/−StDev.
FIGS. 3A-3E Impact of 2AzGlc concentration on S. pneumoniae T14 growth and polysaccharide production in production medium supplemented with Galactose (30 g/L). […] (FIG. 3A) Growth was measured offline using a spectrophotometer blanked with PBS at 600 nm. Cultures were lysed with 0.1% NLS for 30 min. and polysaccharide was extracted via EtOH/CaCl2) precipitation. Polysaccharide (FIG. 3B/FIG. 3C) titer and (FIG. 3D) size were measured via SEC-RI and SEC-MALS, respectively. (FIG. 3E) azido incorporation was then quantified via fluorescent labeling (FL) and normalized to the refractive index (RI). n=3, error bars=+/−StDev.
We tested the impact of 2AzGlc concentration on S. pneumoniae T14 growth, polysaccharide production, and azido incorporation by growing the bacteria in production media (supplemented with Glucose (dextrose, 30 g/L)) with various concentrations of 2AzGlc (0, 1, 5, 10, 20, 40, and 60 mM).

[2] = system: S. pneumoniae T14; assay: Growth of S. pneumoniae T14 in fermentation with azido sugar (OD600); format: cell-based, Streptococcus pneumoniae serotype 14
[3] = system: S. pneumoniae T14 capsule polysaccharide; format: cell-based, Streptococcus pneumoniae serotype 14; conditions: 2AzGlcAc4 2.5-10 mM, production medium + Galactose (30 g/L), DMSO 2%
Protocol: as §1
A SEC fluorescence and Refractive index assay (SEC-FL/RI) was used for azide measurement to confirm the incorporation of azide modification.
Click-It Cell Reaction Buffer kit and Alexa Fluor 488 Alkyne were purchased from Invitrogen.
The initial procedure when running the SEC-FL/RI was to prepare the sample to a target concentration of 0.01 mg/m by mixing a pre-diluted polysaccharide to the final target concentration with the Click Reaction mixture. The reaction mixture consisted of 2.67 mM CuSO4, 2.67 mg/mL cell additive reagent, and 20 uM Alexa Fluor Alkyne. This was mixed with the sample at a 3:1 ratio of reaction mixture to sample and incubated in the absence of light. Reactions were transferred to HPLC vials and ran on the SEC-FL/RI HPLC setup. The RI detector (RID) allowed for detection of the polysaccharide while the Fluorescence Detector (FLD) was used to determine the level of fluor incorporated into the polysaccharide sample. The ratio of the two peak areas gave a measurement for the amount of azide incorporated to the polysaccharide.
Later, in addition to the incubation of the sample for thirty minutes, a buffer exchange step was added that washed out the unreacted fluor as well as the reaction matrix reagents in order to improve the baselines of the FLD and RID during the HPLC run. This added greater resolution of the peak associated with the azide functionalized polysaccharide. The assay was useful for relative quantitation of azide incorporation into the polysaccharide but could not quantify an exact numerical concentration. To improve this aspect work was undertaken to use a polysaccharide with known levels of azido functionalization to make a standard curve that varied the % Azido while keeping the polysaccharide mass the same. This was done by mixing the known azido modified poly (polysaccharide) with specific amounts of native (unmodified) polysaccharide. A strong linear fit for the generated standard curve was seen.
The values for percent azide were able to be converted to a μM azide per mM polysaccharide by converting from % azide using the constant polysaccharide concentration.

[4] = Solubility of azido sugar in production medium; format: physicochemical; conditions: production medium supplemented with galactose (30 g/L), aqueous buffer; read-out: limit of solubility

CC(=O)OC[C@H]1OC(O)[C@H](N=[N+]=[N-])[C@@H](OC(C)=O)[C@@H]1O (stereo partly drawn) [2AzGlcAc2, 3,6-Di-O-acetyl-2-azido-2-deoxy-D-glucopyranose]
polysaccharide production ([1]; azido sugar 20 mM without DMSO): strongly inhibited | growth ([2]; azido sugar 20 mM without DMSO, production medium + Galactose (30 g/L)): strongly inhibited

[N-]=[N+]=N[C@H]1[C@H](O)[C@@H](CO)OC(O)[C@@H]1O (stereo partly drawn) [3AzGlc, 3-azido-3-deoxy-D-glucopyranose]
End Of Fermentation (EOF) time ([2]; screen, azido sugar 1 mM, only in production medium + Galactose): elongated

CC(=O)OC[C@H]1OC(OC(C)=O)[C@H](N=[N+]=[N-])[C@@H](OC(C)=O)[C@@H]1OC(C)=O (stereo partly drawn) [2AzGlcAc4, 1,3,4,6-Tetra-O-acetyl-2-azido-2-deoxy-D-glucopyranose]
FL/RI with increasing concentrations [3]: did not cause an increase | polysaccharide titer ([1]; 2AzGlcAc4 2.5, 5, 10 mM (not 7.5 mM), DMSO 2%): statistically significant reduction | solubility [4]: ≤ 1000 µM | impact on growth ([2]; 2AzGlcAc4 2.5, 5, 7.5, 10 mM, production medium + Galactose (30 g/L), DMSO 2%): no impact
